Molecular target: T1, recombinant human 15-PGDH (Homo sapiens, UniProt P15428)
T1 construct: purchased R&D Systems
T1 sequence (P15428 1-266): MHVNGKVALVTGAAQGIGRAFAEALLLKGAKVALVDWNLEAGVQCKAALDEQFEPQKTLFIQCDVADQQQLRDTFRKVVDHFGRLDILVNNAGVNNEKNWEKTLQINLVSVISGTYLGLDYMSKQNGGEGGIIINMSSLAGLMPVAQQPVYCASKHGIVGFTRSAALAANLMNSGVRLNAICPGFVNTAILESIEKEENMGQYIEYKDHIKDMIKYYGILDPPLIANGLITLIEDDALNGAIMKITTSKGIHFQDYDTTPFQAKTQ
Assay: 15-PGDH enzyme inhibition test
Type: biochemical
Conditions: 4 nM recombinant human 15-PGDH, 30 μM PGE2, 1 mM NAD+, 60 minutes after starting the reaction; read-out: IC50 Value
Method: 15-PGDH Enzyme Inhibition Test
A test compound and 4 nM recombinant human 15-PGDH (R&D Systems) were added, in 50 mM Tris-HCl (pH 8.0) containing 0.01% TWEEN 20 (Sigma) and 0.01% bovine gamma globulin (Sigma), to a 384-well Flat Bottom Black plate (Corning, 3820), and the resultant was allowed to stand still at room temperature for 12 minutes, and 30 μM PGE2 (Cayman Chemical) and 1 mM NAD+ (Sigma) were added thereto to start the reaction. 60 minutes after starting the reaction, measurement was performed using Synergy 2 (BioTeck) at an excitation wavelength of 340 nm and a fluorescence wavelength of 440 nm. Assuming that a fluorescence signal obtained with an assay buffer added instead of the test compound and NAD+ was 100% and that a signal obtained with NAD+ added was 0%, a concentration corresponding to 50% inhibition plotted on a concentration-reaction curve of the test compound was defined as an IC50 value. Incidentally, in the following tables, an IC50 value smaller than 10 nM was shown as +++, an IC50 value equal to or larger than 10 nM and smaller than 100 nM was shown as ++, and an IC50 value equal to or larger than 100 nM was shown as +.

Compound	IC50 [nM]
O=C(NC1COC1)c1ccc(N2CCCc3cc(C(=O)N4CCCCC4)cnc32)cc1F [Example 1-62]	< 10
CCOCCN1Cc2cc(N3CCCc4cc(C(=O)N5CCCCC5)cnc43)ccc2C1=O [Example 1-63]	< 10
COCCN1Cc2cc(N3CCCc4cc(C(=O)N5CCCCC5)cnc43)ccc2C1=O [Example 1-64]	< 10
O=C(c1cnc2c(c1)CCCN2c1ccc2c(c1)CN(CC1COC1)C2=O)N1CCCCC1 [Example 1-65]	< 10
O=C(c1cnc2c(c1)CCCN2c1ccc2c(c1)CN(C1COC1)C2=O)N1CCCCC1 [Example 1-66]	< 10
CN1Cc2cc(N3CCCc4cc(C(=O)N5CCCCC5)cnc43)cnc2C1=O [Example 1-67]	< 10
CN1Cc2cc(N3CCCc4cc(C(=O)N5CCCCC5)cnc43)ccc2C1=O [Example 1-68]	< 10
CNC(=O)c1ncc(N2CCCc3cc(C(=O)N4CCCCC4)cnc32)cc1F [Example 1-69]	< 10
CCOCCn1nc2cc(N3CCCc4cc(C(=O)N5CCCCC5)cnc43)ccn2c1=O [Example 1-70]	< 10
COCCOCCn1nc2cc(N3CCCc4cc(C(=O)N5CCCCC5)cnc43)ccn2c1=O [Example 1-71]	< 10
COCCN1Cc2cc(N3CCCc4cc(C(=O)N5CCCCC5)cnc43)ncc2C1=O [Example 1-72]	10 to 100
CCOCCN1Cc2cc(N3CCCc4cc(C(=O)N5CCCCC5)cnc43)ncc2C1=O [Example 1-73]	10 to 100
O=C(c1cnc2c(c1)CCCN2c1cc2c(cn1)C(=O)N(C1COC1)C2)N1CCCCC1 [Example 1-74]	10 to 100
CCn1nc2cc(N3CCCc4cc(C(=O)N5CCC(F)(F)CC5)cnc43)ccn2c1=O [Example 1-75]	< 10
COCn1nc2cc(N3CCCc4cc(C(=O)N5CCC(F)(F)CC5)cnc43)ccn2c1=O [Example 1-76]	< 10
CCOCn1nc2cc(N3CCCc4cc(C(=O)N5CCC(F)(F)CC5)cnc43)ccn2c1=O [Example 1-77]	< 10
COCCn1nc2cc(N3CCCc4cc(C(=O)N5CCC(F)(F)CC5)cnc43)ccn2c1=O [Example 1-78]	< 10
CCOCCn1nc2cc(N3CCCc4cc(C(=O)N5CCC(F)(F)CC5)cnc43)ccn2c1=O [Example 1-79]	< 10
COCCOCCn1nc2cc(N3CCCc4cc(C(=O)N5CCC(F)(F)CC5)cnc43)ccn2c1=O [Example 1-80]	< 10
CN1Cc2cc(N3CCCc4cc(C(=O)N5CCC(F)(F)CC5)cnc43)ccc2C1=O [Example 1-81]	< 10
COCCN1Cc2cc(N3CCCc4cc(C(=O)N5CCC(F)(F)CC5)cnc43)ccc2C1=O [Example 1-82]	< 10
CCOCCN1Cc2cc(N3CCCc4cc(C(=O)N5CCC(F)(F)CC5)cnc43)ccc2C1=O [Example 1-83]	< 10
CN1Cc2cc(N3CCCc4cc(C(=O)N5CCC(F)(F)CC5)cnc43)cnc2C1=O [Example 1-84]	< 10
CN1Cc2cc(N3CCCc4cc(C(=O)N5CCC(F)(F)CC5)cnc43)ncc2C1=O [Example 1-85]	10 to 100

Compound	IC50 [nM]
COCCN1Cc2cc(N3CCCc4cc(C(=O)N5CCC(F)(F)CC5)cnc43)ncc2C1=O [Example 1-86]	10 to 100
Cn1cnc2cc(N3CCCc4cc(C(=O)N5CCCCC5)cnc43)ccc2c1=O [Example 1-87]	< 10
Cn1cnc2cc(N3CCCc4cc(C(=O)N5CCC(F)(F)CC5)cnc43)ccc2c1=O [Example 1-88]	< 10
COC(=O)c1cn(C)c2cc(N3CCOc4cc(C(=O)N5CCCCC5)cnc43)ccc12 [Example 1-90]	10 to 100
Cn1ccc2ccc(N3CCOc4cc(C(=O)N5CCCCC5)cnc43)cc21 [Example 1-91]	10 to 100
COC(=O)c1cc2ccc(N3CCOc4cc(C(=O)N5CCCCC5)cnc43)cc2n1C [Example 1-92]	< 10
Cn1nc2cc(N3CC(C)(C)Oc4cc(C(=O)N5CCCCC5)cnc43)ccn2c1=O [Example 1-93]	< 10
Cn1nc2cc(N3CCCc4cc(C(=O)N5CCCCC5)cnc43)ccn2c1=O [Example 1-94]	< 10
C[C@H]1COc2cc(C(=O)N3CCCCC3)ccc2N(c2ccn3c(=O)n(C)nc3c2)C1 [Example 1-95]	< 10
C[C@@H]1COc2cc(C(=O)N3CCCCC3)ccc2N(c2ccn3c(=O)n(C)nc3c2)C1 [Example 1-96]	< 10
Cn1nc2cc(N3CCSc4cc(C(=O)N5CCCCC5)ccc43)ccn2c1=O [Example 1-97]	< 10
Cn1nc2cc(N3CCCCOc4cc(C(=O)N5CCCCC5)cnc43)ccn2c1=O [Example 1-98]	10 to 100
Cn1nc2cc(N3CCCOc4cc(C(=O)N5CCCCC5)cnc43)ccn2c1=O [Example 1-99]	< 10
COc1c(C(=O)N2CCCCC2)ccc2c1OCCN2c1ccn2c(=O)n(C)nc2c1 [Example 1-100]	< 10
CN1Cc2cc(N3CCOc4cc(C(=O)N5CCCCC5)cnc43)cnc2C1=O [Example 1-101]	< 10
CN1Cc2nc(N3CCOc4cc(C(=O)N5CCCCC5)cnc43)ccc2C1=O [Example 1-102]	10 to 100
CN1Cc2cc(N3CCOc4cc(C(=O)N5CCCCC5)cnc43)ncc2C1=O [Example 1-103]	< 10
O=C(c1cnc2c(c1)OCCN2c1ccn2nnnc2c1)N1CCCCC1 [Example 1-104]	< 10
O=C(c1cnc2c(c1)OCCN2c1ccn2cnnc2c1)N1CCCCC1 [Example 1-105]	< 10
O=C(c1cnc2c(c1)OCCN2c1ccn2ncnc2c1)N1CCCCC1 [Example 1-106]	< 10
Cn1nc2cc(N3CCCCc4cc(C(=O)N5CCCCC5)cnc43)ccn2c1=O [Example 1-107]	< 10
Cn1nc2cc(N3CCOCc4cc(C(=O)N5CCCCC5)cnc43)ccn2c1=O [Example 1-108]	10 to 100
Cn1nc2cc(N3CCc4cc(C(=O)N5CCCCC5)cnc43)ccn2c1=O [Example 1-109]	< 10
Cn1nc2cc(N3CCOc4cc(SC5CCCCC5)cnc43)ccn2c1=O [Example 1-110]	< 10

Compound	IC50 [nM]
Cn1nc2cc(N3CCOc4cc(C(=O)C5CCCCC5)cnc43)ccn2c1=O [Example 1-111]	< 10
Cn1nc2cc(N3CCCc4cc(C(=O)N5CCC[C@H](CF)C5)cnc43)ccn2c1=O [Example 1-112]	< 10
CCn1nc2cc(N3CCCc4cc(C(=O)N5CCC[C@H](CF)C5)cnc43)ccn2c1=O [Example 1-113]	< 10
COCn1nc2cc(N3CCCc4cc(C(=O)N5CCC[C@H](CF)C5)cnc43)ccn2c1=O [Example 1-114]	< 10
CCOCn1nc2cc(N3CCCc4cc(C(=O)N5CCC[C@H](CF)C5)cnc43)ccn2c1=O [Example 1-115]	< 10
COCCn1nc2cc(N3CCCc4cc(C(=O)N5CCC[C@H](CF)C5)cnc43)ccn2c1=O [Example 1-116]	< 10
CCOCCn1nc2cc(N3CCCc4cc(C(=O)N5CCC[C@H](CF)C5)cnc43)ccn2c1=O [Example 1-117]	< 10
COCCOCCn1nc2cc(N3CCCc4cc(C(=O)N5CCC[C@H](CF)C5)cnc43)ccn2c1=O [Example 1-118]	< 10
Cn1nc2cc(N3CCCc4cc(C(=O)N5CCC[C@@H](CF)C5)cnc43)ccn2c1=O [Example 1-119]	< 10
CCn1nc2cc(N3CCCc4cc(C(=O)N5CCC[C@@H](CF)C5)cnc43)ccn2c1=O [Example 1-120]	< 10
COCn1nc2cc(N3CCCc4cc(C(=O)N5CCC[C@@H](CF)C5)cnc43)ccn2c1=O [Example 1-121]	< 10
CCOCn1nc2cc(N3CCCc4cc(C(=O)N5CCC[C@@H](CF)C5)cnc43)ccn2c1=O [Example 1-122]	< 10
COCCn1nc2cc(N3CCCc4cc(C(=O)N5CCC[C@@H](CF)C5)cnc43)ccn2c1=O [Example 1-123]	< 10
CCOCCn1nc2cc(N3CCCc4cc(C(=O)N5CCC[C@@H](CF)C5)cnc43)ccn2c1=O [Example 1-124]	< 10
COCCOCCn1nc2cc(N3CCCc4cc(C(=O)N5CCC[C@@H](CF)C5)cnc43)ccn2c1=O [Example 1-125]	< 10
CCN1Cc2cc(N3CCCc4cc(C(=O)N5CCC(F)(F)CC5)cnc43)ccc2C1=O [Example 1-126]	< 10
CN1Cc2cc(N3CCOc4cc(C(=O)N5CCC(F)(F)CC5)cnc43)ccc2C1=O [Example 1-127]	< 10
O=C(c1cnc2c(c1)OCCN2c1ccc2c(=O)[nH]ccc2c1)N1CCC(F)(F)CC1 [Example 1-128]	< 10
Cn1nc2cc(N3CCCc4cc(C(=O)N5CCC(F)(F)CC5)cnc43)ccn2c1=O [Example 1-129]	< 10
Cn1nc2cc(N3CCCc4cc(C(=O)N5CCCCC5)ccc43)ccn2c1=O [Example 1-130]	< 10
COC(=O)c1ccc(N2CCCc3cc(C(=O)N4CCCCC4)ccc32)cc1 [Example 1-131]	< 10
Cn1nc2cc(N3CCOc4cc(C(=O)C5CCC(F)(F)CC5)cnc43)ccn2c1=O [Example 1-132]	< 10
